# Source: ChEMBL document CHEMBL5260828, “Amphiphilic glycoconjugates as potential anti-cancer chemotherapeutics” (Eur J Med Chem, 2018)
# Assays:
# [1] = Inhibition of cell adhesion of human KM12-HX cells to TNF-alpha stimulated HUVEC cells incubated for 30 mins with HUVEC cells followed by [3H]thymidine labeled KM12-HX cells addition measured after 30 mins by radioactivity assay; assay type: functional, cell-based
# [2] = Antimitotic activity against human U373 cells assessed as inhibition of cell proliferation by measuring inhibitory dose incubated for 48 hrs by [3H]-thymidine incorporation based liquid scintillation counting method; assay type: functional; conditions: U373 MG, read-out: ID50 (the source's name)
# MCF-10A [3] = test: Cytotoxicity against human MCF-10A cells assessed as cell growth inhibition incubated for 3 days by MTT assay; assay type: functional, cell-based; conditions: 72 h
# [4] = Cytotoxicity against mouse NIH/3T3 cells assessed as cell growth inhibition incubated for 3 days by MTT assay; assay type: toxicity, cell-based, NIH3T3
# N2a = test: Antimitotic activity against mouse Neuro2a cells assessed as inhibition of cell proliferation by measuring inhibitory dose by [3H]-thymidine incorporation based […]; assay type: functional; conditions: read-out: ID50 (the source's name)
# [5] = Antimitotic activity against rat Astrocyte cells assessed as inhibition of cell proliferation by measuring inhibitory dose by [3H]-thymidine incorporation based […]; assay type: functional; conditions: read-out: ID50 (the source's name)
# [6] = Antimitotic activity against rat RN 22 cells assessed as inhibition of cell proliferation by measuring inhibitory dose by [3H]-thymidine incorporation based […]; assay type: functional; conditions: read-out: ID50 (the source's name)
# [7] = Antimitotic activity against rat Astrocytoma cell assessed as inhibition of cell proliferation by measuring inhibitory dose by [3H]-thymidine incorporation based […]; assay type: functional; conditions: read-out: ID50 (the source's name)
# T-24 [8] = test: Cytotoxicity against human T24 cells assessed as cell viability; assay type: functional
# T-24 [9] = test: Cytotoxicity against human T24 cells assessed as cell viability at 12.5 uM in presence of doxorubicin; assay type: functional; conditions: read-out: Activity
# MOLT-4 = test: Cytotoxicity against human MOLT-4 cells; assay type: functional, cell-based
# MKN-45 = test: Cytotoxicity against human MKN-45 cells; assay type: functional, cell-based
# [10] = Cytotoxicity against human HEK293F cells; assay type: toxicity, cell-based
# MG-63 = test: Cytotoxicity against human MG-63 cells assessed as inhibition of cell growth incubated for 30 mins by MTT colorimetric assay; assay type: functional, cell-based; conditions: MG-63, 0.5 h
# MCF7 [11] = test: Cytotoxicity against human MCF7 cells assessed as inhibition of cell growth incubated for 30 mins by MTT colorimetric assay; assay type: functional, cell-based; conditions: MCF7, 0.5 h
# SMMC-7721 = test: Cytotoxicity against human SMMC-7721 cells assessed as inhibition of cell growth incubated for 30 mins by MTT colorimetric assay; assay type: functional, cell-based; conditions: SMMC-7721, 0.5 h
# CCRF S-180 [12] = test: Antitumor activity against mouse CCRF S-180 cells implanted in Kunming mouse assessed as inhibition of tumor growth at 4 mg/kg,ip administered for 9 consecutive days; assay type: functional
# CCRF S-180 [13] = test: Antitumor activity against mouse CCRF S-180 cells implanted in Kunming mouse assessed as inhibition of tumor growth at 1 mg/kg,ip administered for 9 consecutive days; assay type: functional
# CCRF S-180 [14] = test: Antitumor activity against mouse CCRF S-180 cells implanted in Kunming mouse assessed as inhibition of tumor growth at 2 mg/kg,ip administered for 9 consecutive days; assay type: functional
# ACHN [15] = test: Cytotoxicity against human ACHN cells; assay type: functional, cell-based
# ACHN [16] = test: Cytotoxicity against human ACHN cells assessed as cell viability; assay type: functional
# HeLa [17] = test: Cytotoxicity against human HeLa cells; assay type: functional, cell-based
# ACHN [18] = test: Cytotoxicity against human ACHN cells assessed as cell viability at 5 mM in presence of paclitaxel; assay type: functional; conditions: read-out: Activity
# A2780 = test: Cytotoxicity against human A2780 cells incubated for 48 hrs; assay type: functional, cell-based; conditions: A2780, 48 h
# P388 = test: Cytotoxicity against mouse P388 cells by MTT colorimetric assay; assay type: functional, cell-based
# Lung NSCLC-N6 cell-line = test: Cytotoxicity against human Lung NSCLC-N6 cell-line by MTT colorimetric assay; assay type: functional, cell-based
# C6 = test: Antimitotic activity against rat C6 cells assessed as inhibition of cell proliferation by measuring inhibitory dose by [3H]-thymidine incorporation based […]; assay type: functional; conditions: read-out: ID50 (the source's name)
# HSC-2 = test: Cytotoxicity against human HSC-2 cells assessed as inhibition of cell proliferation by MTT colorimetric assay; assay type: functional, cell-based
# A549 = test: Cytotoxicity against human A549 cells assessed as inhibition of cell proliferation by MTT colorimetric assay; assay type: functional, cell-based
# Ca9-22 = test: Cytotoxicity against human Ca9-22 cells assessed as inhibition of cell proliferation by MTT colorimetric assay; assay type: functional, cell-based
# MDA-MB-231 [19] = test: Cytotoxicity against human MDA-MB-231 cells assessed as inhibition of cell proliferation by MTT colorimetric assay; assay type: functional, cell-based
# HCT-116 = test: Antiproliferative activity against human HCT-116 cells assessed as inhibition of cell proliferation; assay type: functional, cell-based
# MCF7 [20] = test: Antiproliferative activity against human MCF7 cells assessed as inhibition of cell proliferation; assay type: functional, cell-based
# HeLa [21] = test: Cytotoxicity against human HeLa cells assessed as cell growth inhibition by alamar blue assay; assay type: functional, cell-based
# [22] = Cytotoxicity against mouse NIH/3T3 cells assessed as cell growth inhibition by alamar blue assay; assay type: toxicity, cell-based, NIH3T3
# MCF-10A [23] = test: Cytotoxicity against human MCF-10A cells assessed as cell growth inhibition by alamar blue assay; assay type: functional, cell-based
# MCF7 [24] = test: Cytotoxicity against human MCF7 cells assessed as cell growth inhibition by MTT assay; assay type: functional, cell-based
# MDA-MB-231 [25] = test: Cytotoxicity against human MDA-MB-231 cells assessed as cell growth inhibition by alamar blue assay; assay type: functional, cell-based
# Jurkat = test: Cytotoxicity against human Jurkat cells assessed as cell growth inhibition by alamar blue assay; assay type: functional, cell-based
# U-937 = test: Cytotoxicity against human U-937 cells assessed as cell growth inhibition by alamar blue assay; assay type: functional, cell-based
# COLO 205 = test: Antiproliferative activity against human COLO 205 cells assessed as cell growth inhibition; assay type: functional, cell-based
# HL-60 = test: Antiproliferative activity against human HL-60 cells assessed as cell growth inhibition; assay type: functional, cell-based
smiles,measurement,setting,value
CCCCCCCCCCCCCCC(CCCCCCCCCCCCCC)CO[C@@H]1O[C@H](CO)[C@@H](O[C@@H]2O[C@H](CO)[C@H](O)[C@H](OS(=O)(=O)O)[C@H]2O)[C@H](O[C@@H]2O[C@@H](C)[C@@H](O)[C@@H](O)[C@@H]2O)[C@H]1O,IC50,[1],300 µM
CCCCCCCCO[C@H]1O[C@H](COCC(CO)(CO)CO)[C@@H](O)[C@H](O)[C@H]1NC(C)=O,IC50,[2],43 µM
C/C=C(\C)C(=O)O[C@@H]1[C@@H](O)[C@@H]2O[C@H]3[C@H](O[C@@H](CCCCC)CCCCCCC(=O)CCC(=O)OC[C@@H](O2)[C@H]1OC(=O)/C=C/c1ccccc1)O[C@H](C)[C@H](OC(C)=O)[C@@H]3O,IC50,MCF-10A [3],0.0054 µM
same,IC50 at 3 days,[4],0.0168 µM
CO[C@@H]1O[C@H](CO)[C@@H](O[C@@H]2O[C@H](CO)[C@H](O)[C@H](O[C@H]3O[C@H](CO)[C@H](O)[C@H](O)[C@H]3NC(C)=O)[C@H]2O)[C@H](O[C@@H]2O[C@@H](C)[C@@H](O)[C@@H](O)[C@@H]2O)[C@H]1O,IC50,N2a,24 µM
same,IC50,[5],24 µM
same,IC50,[6],24 µM
same,IC50,[7],24 µM
CCCCCCCC(=O)O[C@H]1[C@H](OC[C@H](O)[C@@H](O)[C@@H](O)[C@H](O)[C@H](O)CO)O[C@H](COC(=O)CCCCC)[C@@H](OC(=O)CCCCC)[C@@H]1OC(=O)CCCCC,Activity,T-24 [8],57.3%
same,viability at 12.5 µM,T-24 [9],36.9%
same,IC50,MOLT-4,8.1 µM
same,IC50,MKN-45,16 µM
same,IC50,[10],21.8 µM
CCCCC[C@@H](CCCCCCCCCC(=O)O[C@H]1[C@H](O[C@@H](CNc2ccc(OC)cc2)[C@@H](O)[C@H](O)[C@H](O)CO)O[C@@H](C)[C@H](OC(=O)[C@@H](C)[C@@H](C)O)[C@H]1O[C@@H]1O[C@@H](C)[C@H](O)[C@@H](O)[C@H]1O)O[C@@H]1OC[C@@H](O)[C@H](O)[C@H]1O[C@@H]1O[C@H](CO)[C@@H](O)[C@H](O)[C@H]1O[C@@H]1O[C@@H](C)[C@H](OC(=O)[C@H](C)[C@@H](C)O)[C@@H](O[C@@H]2O[C@@H](C)[C@H](O)[C@@H](O)[C@H]2O)[C@H]1OC(=O)CCCCCCCCC[C@@H](O)CCC,IC50,MG-63,10.9 µg/mL
same,IC50,MCF7 [11],8.72 µg/mL
same,IC50,SMMC-7721,9.78 µg/mL
CCCCCCCCCCCCCO[C@@H]1O[C@H](CO[C@@H]2O[C@H](CO)[C@@H](O[C@@H]3O[C@H](CO[C@@H]4O[C@H](CO)[C@@H](O)[C@H](O)[C@H]4O)[C@@H](O)[C@H](O[C@@H]4O[C@H](CO)[C@@H](O)[C@H](O)[C@H]4O)[C@H]3O)[C@H](O)[C@H]2O)[C@@H](O)[C@H](O[C@@H]2O[C@H](CO)[C@@H](O[C@@H]3O[C@H](CO)[C@H](O)[C@H](O)[C@H]3O)[C@H](O)[C@H]2O)[C@H]1O,inhibition in vivo at 4 mg/kg,CCRF S-180 [12],37.9%
same,inhibition in vivo at 1 mg/kg,CCRF S-180 [13],39.1%
same,inhibition in vivo at 2 mg/kg,CCRF S-180 [14],39.9%
CCCCCCCC(=O)O[C@H]1[C@H](OC[C@H](O)[C@H](O)[C@@H](O)[C@@H](O)CO)O[C@H](COC(=O)CCCCC)[C@@H](OC(=O)CCCCC)[C@@H]1OC(=O)CCCCC,IC50,ACHN [15],17 µM
same,Activity,ACHN [16],63.8%
same,IC50,HeLa [17],16.7 µM
same,viability at 5000 µM,ACHN [18],40.6%
same,IC50,MKN-45,14.9 µM
same,IC50,[10],18.1 µM
CO[C@@H]1/C=C(\C)C[C@H](/C=C/C#C[C@H]2C[C@@H]2Cl)OC(=O)[C@@H](C)[C@]2(O)C[C@H](O[C@@H]3O[C@@H](C)[C@H](O)[C@@](C)(O)[C@H]3OC)[C@@H](C)[C@@H](O2)[C@@H]1C,IC50,A2780,20.2 µM
same,IC50,P388,15.3 µg/mL
same,IC50,Lung NSCLC-N6 cell-line,11.3 µg/mL
CO[C@@H]1O[C@H](CO)[C@@H](O[C@@H]2O[C@H](CO)[C@H](OS(=O)(=O)O)[C@H](O)[C@H]2O)[C@H](O[C@@H]2O[C@@H](C)[C@@H](O)[C@@H](O)[C@@H]2O)[C@H]1O,IC50,C6,79 µM
C=CCCCC[C@@H](C)O[C@@H]1O[C@@H](C)[C@H](OC(=O)C[C@H]2C[C@@H]3O[C@]4(C)CC[C@H]5[C@H](C)CC[C@@H]([C@H]2C)[C@@]35OO4)C[C@H]1O,IC50,HSC-2,15.1 µM
same,IC50,A549,15.1 µM
same,IC50,Ca9-22,15.1 µM
same,IC50,MDA-MB-231 [19],15.1 µM
CCC/C=C\C[C@@H](O[C@H](/C=C/[C@@H](C/C=C\CCCC(=O)OC)OC[C@H]1O[C@@H](OC[C@H](O)CO)[C@H](O)[C@@H](O)[C@@H]1O)[C@H](O)C/C=C\CCCCC)[C@H](O)/C=C/[C@@H](O)CCCCC(=O)OC,IC50,HCT-116,0.003 µM
same,IC50,MCF7 [20],0.003 µM
C/C=C(\C)C(=O)O[C@@H]1[C@@H](O)[C@H](O[C@H]2[C@H](O[C@H](CCC)CCCCC)O[C@H](C)[C@H](OC(C)=O)[C@@H]2O)O[C@H](COC(=O)CCC(=O)CCC)[C@H]1OC(=O)/C=C/c1ccccc1,IC50,HeLa [21],0.03 µM
same,IC50,[22],0.0207 µM
same,IC50,MCF-10A [23],0.0118 µM
same,IC50,MCF7 [24],0.0782 µM
same,IC50,MDA-MB-231 [25],0.0188 µM
same,IC50,Jurkat,0.0225 µM
same,IC50,U-937,0.0171 µM
CN[C@H]1[C@@H](O)C[C@H](O[C@H]2C/C=C(\C)C/C(C)=C/C=C/CC[C@H](C)CNC(=O)/C=C/C=C/[C@@H]2C)O[C@@H]1C [VICENISTATIN],IC50,COLO 205,0.19 µg/mL
same,IC50,HL-60,0.12 µg/mL
